Laboratory results taken from US5221675A, “Aza-spirocyclic compounds that enhance cholinergic neurotransmission” (Abbott Laboratories, priority 1991, dated 1993).

Columns and labels:
M1 muscarinic receptor = target: T1, M1 muscarinic receptor (Rattus norvegicus, UniProt P08482); assay: Competition with [3H]pirenzepine at cortical M1 muscarinic receptors; assay type: binding; conditions: Table 3; read-out: M1 Ki
T1 construct: from tissue; host or cells: adult rat fronto-parietal cortex membranes (homogenate)
T1 sequence (P08482 1-460): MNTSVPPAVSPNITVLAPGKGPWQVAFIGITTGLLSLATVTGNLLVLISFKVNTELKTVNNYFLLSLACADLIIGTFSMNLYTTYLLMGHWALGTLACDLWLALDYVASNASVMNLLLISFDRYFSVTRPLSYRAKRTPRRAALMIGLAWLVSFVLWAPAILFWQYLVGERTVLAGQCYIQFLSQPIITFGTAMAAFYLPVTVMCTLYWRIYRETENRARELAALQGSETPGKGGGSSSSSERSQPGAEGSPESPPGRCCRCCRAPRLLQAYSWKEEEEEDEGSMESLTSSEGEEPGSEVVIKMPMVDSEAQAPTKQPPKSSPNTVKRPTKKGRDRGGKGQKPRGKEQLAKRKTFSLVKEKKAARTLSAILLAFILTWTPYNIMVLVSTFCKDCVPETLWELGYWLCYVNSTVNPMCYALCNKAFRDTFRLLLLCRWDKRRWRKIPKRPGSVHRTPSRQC

male Sprague-Dawley rats = assay: Mean arterial pressure, resting CBF and basal forebrain-elicited cortical CBF (laser-Doppler flowmetry); assay type: in vivo, rat
Method: General Surgery for CBF Measurement--Methods for surgical preparation of rats for electrical stimulation of brain and measurement of rCBF have been previously described (Nakai et al., Am. J. Physiol. 1982, 243:226) and are summarized below.
Studies are conducted on male Sprague-Dawley rats that are maintained in a thermally controlled (26°-27° C.) light-cycled (07.00 hour on-019.00 hour off) environment, fed standard rat chow and given water ad libitum. Anesthesia is induced with halothane (3.5%; balance 02) delivered through a nose mask and maintained at 2% during the initial surgery. Thin-wall vinyl catheters (o.d.=0.03 inch) are placed in each femoral artery and vein, and the trachea is cannulated.
Animals are subsequently co-anesthetized with urethane (1.5 g/kg, s.c.) and placed in a stereotaxic frame with the head positioned so that the floor of the IVth ventricle was horizontal (incisor bar position: -11 mm.). After connecting the tracheal cannula to a small-animal respirator, the animals are paralyzed with d-tubocurarine (0.6 mg/kg/h, i.m.), and ventilated (80 cpm) with 100% 02. Arterial pressure (AP) and heart rate (HR) are continuously monitored through one of the arterial catheters connected to a Statham P23Db transducer that is coupled to a chart recorder. The level of anesthesia during surgery or subsequent experimental testing is assessed by the AP response to tail pinch, with increasing levels of arousal giving rise to irregular AP readings. Booster doses of urethane (250 mg/kg, s.c.) are given as needed.
Bilateral craniotomies (approximately 4 mm×11 mm) are performed overlying the frontoparietal cortices taking care to leave the dura intact. Halothane is delivered at a reduced rate of 1% during cranial surgery and discontinued afterward. A small volume (about 0.2 ml) of arterial blood is sampled after completion of all surgery for measurement of PO2, PCO2 and pH by a blood gas analyzer. Arterial blood gases are maintained so that PO2 was greater than 100 mm Hg, PCO2 =33-38 mm Hg, and pH=7.35-7.45. Maintaining these values is accomplished by adjusting the stroke volume of the ventilator. Once appropriate physiological parameters are obtained (approximately 30 min), the experimental protocol is initiated.
Electrical Stimulation of the Basal Forebrain (BF)--The BF is stimulated with cathodal current delivered through a stainless steel concentric bipolar electrode ([…]) made by Rhodes Medical Instruments (Model SNEX-100). Electrical pulses are generated by a square wave stimulator (Grass, Model S-88) and constant current is passed through a photoelectric stimulus-isolation unit (Grass, Model PSIU6). The stimulus current is measured on an oscilloscope by continuously displaying the voltage drop across a 10-ohm resistor.
The procedure for eliciting an increased cortical CBF response requires the stereotaxic placement of the stimulating electrode into the BF. For positioning, the electrode is inclined posteriorly to 18 degrees, and the stereotaxic coordinates used were 5.0 mm posterior to, and 2.6 mm lateral to bregma (stereotaxic zero reference point). […] These parameters have been shown previously to elicit maximal increases in cortical CBF (Arneric, Excerpta Medica International Congress Series, Vol. 869:381, 1989). The region of the BF that selectively affects cortical CBF is restricted, with electrode movements of 0.5 mm dorsal or ventral to this site eliciting potent vasodepressor responses in addition to the increases in CBF. […] When CBF increases of approximately 100% or greater are repeatedly obtained in the absence of significant changes in AP (<10 mm Hg) or HR (<10 beats/min.), and when the perfusion rate is stable in the absence of BF stimulation, the experimental testing is started.
CBF Measurement with Laser--Dopler Flowmetry (LDF)--The principles and technical aspects of LDF are presented in detail elsewhere (Bonner et al., Appl. Opt. 1981, 20:2097; Stern et al., Am. J. Physiol. 1977, 232:H441). […]

M2 muscarinic receptor = M2 muscarinic receptor (Rattus norvegicus, UniProt P10980); assay type: binding; conditions: read-out: M2 Ki; Table 3
[1] = target: neuronal nicotinic cholinergic receptor; assay: [3H]-MCC binding to nicotinic receptors in whole rat brain membranes; conditions: for Ki: Table 3, [3H]-MCC, rat brain membranes, 4° C., read-out: Nic Ki (binding to the nicotinic receptor); for Nic % Enhancement @ Max. Effect: at 0.0001 (mM) as printed; for Nic Conc. @ Max. Effect: concentration giving maximal enhancement of [3H]-MCC binding; for Affinity for M1/M2 muscarinic and nicotinic neuronal binding sites: muscarinic (M1 or M2) and nicotinic; for Affinity for M1/M2 muscarinic and nicotinic neuronal binding sites / Binding of other nicotinic ligands to the neuronal nicotinic receptor: words
Method: Binding of [^3 H]methylcarbamylcholine ([^3 H]-MCC) to nicotinic receptors is accomplished using crude synaptic membranes prepared from whole rat brain (Snyder and Enna, Brain Res. 1975, 100:81). Washed membranes are stored at -80° C. prior to use. Frozen aliquots are slowly thawed and resuspended in 20 volumes of buffer (containing: 120 mM NaCl, 5 mM KCl, 2 mM MgCl2, 2 mM CaCl2, and 50 mM Tris-Cl, pH 7.4 @4° C.). After centrifuging at 20K×9 for 15 minutes, the pellets are resuspended in 30 volumes of buffer. Homogenate ([…]) is added to triplicate tubes containing concentrations of test compound and [^3 H]-MCC (3 nM) in a final volume of […]. Samples are incubated for 60 minutes at 4° C., then rapidly filtered through Whatman GF/B filters presoaked in 0.5% polyethylimine using 3×4 ml of ice-cold buffer. The filters are counted in 4 mL of Ecolume (ICN). Nonspecific binding is determined in the presence of 10 […] and values were expressed as a percentage of total binding. IC50 values are determined with the ALLFIT curve-fitting program and IC50 values are converted to Ki values using the Cheng and Prusoff correction, (Ki=IC50 /(1+[ligand]/Kd ligand). Alternatively, data are expressed as a percentage of the total specific binding.

[2] = in vivo; cited from earlier work
[3] = test system: Rat striatal muscarinic receptors; assay: Agonist intrinsic activity: inhibition of forskolin-activated [3H]cAMP in dissociated rat striatum; assay type: cell-based; conditions: selective muscarinic antagonist
Source text: Rat striatal muscarinic receptors are coupled to the inhibition of the conversion of adenosine triphosphate (ATP) to cyclic adenosine monophosphate (cAMP). […] The ATP stores in dissociated rat striatum were labeled with [^3 H]adenine and [^3 H]-cAMP levels were elevated with 10 um forskolin.

[4] = 0.01 mg/kg, iv, mean of three experiments

Sequence of M2 muscarinic receptor (P10980 whole entry): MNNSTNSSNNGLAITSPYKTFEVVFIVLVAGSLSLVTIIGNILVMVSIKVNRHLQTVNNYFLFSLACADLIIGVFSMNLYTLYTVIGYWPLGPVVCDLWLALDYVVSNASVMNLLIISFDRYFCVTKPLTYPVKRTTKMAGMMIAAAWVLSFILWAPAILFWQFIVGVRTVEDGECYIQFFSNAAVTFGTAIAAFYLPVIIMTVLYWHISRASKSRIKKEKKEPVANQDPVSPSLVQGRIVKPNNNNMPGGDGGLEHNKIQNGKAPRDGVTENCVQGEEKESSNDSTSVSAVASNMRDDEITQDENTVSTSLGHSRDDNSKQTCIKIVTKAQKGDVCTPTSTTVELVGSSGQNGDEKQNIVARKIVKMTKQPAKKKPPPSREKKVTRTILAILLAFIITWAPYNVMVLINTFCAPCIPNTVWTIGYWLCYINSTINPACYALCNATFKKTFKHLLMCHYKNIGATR

Row | Structure (SMILES) | Ki (M1 muscarinic receptor) [µM] | Ki (M2 muscarinic receptor) [µM] | Ki [1] [µM] | Nic % Enhancement @ Max. Effect [1] | Nic Conc. @ Max. Effect [1] [mM] | Affinity for M1/M2 muscarinic and nicotinic neuronal binding sites [1] | Binding of other nicotinic ligands to the neuronal nicotinic receptor [1] | also measured
1 | CN1C(=O)N(c2ccccc2)C2(CCNCC2)C1=O.Cl [Example 3, 3-Methyl-1-phenyl-1,3,8-triazaspiro[4,5]decane-2,4-dione hydrochloride] | > 100 | > 100 | > 100 | +42% | 0.0001 | little affinity | potently enhance the binding of other nicotinic ligands | BF-Elicited CBF Response, % Change from Pre-Drug CONTROL (male Sprague-Dawley rats; [4]): +39%; MAP, % Change from Pre-Drug CONTROL (male Sprague-Dawley rats; [4]): +5%; Resting CBF, % Change from Pre-Drug CONTROL (male Sprague-Dawley rats; [4]): +23%; Effects on MAP (male Sprague-Dawley rats; 0.01-10.0 mg/kg iv): No remarkable effects on MAP; Effects on blood pressure (male Sprague-Dawley rats; iv): no overt effects on blood pressure; Resting CBF and BF-elicited CBF response (male Sprague-Dawley rats; low concentrations, iv, words): effective in enhancing resting CBF and the BF-elicited CBF response
2 | CN1CCC2(CC1)C(=O)N(C)C(=O)N2c1ccccc1 [Example 4, 3,8-Dimethyl-1-phenyl-1,3,8-triazaspiro[4,5]decane-2,4-dione] | 28 | > 100 | > 100 | +33% | 0.0001 | little affinity | potently enhance the binding of other nicotinic ligands | –
3 | COC(=O)C1=CCCN(C)C1 [arecoline] | – | – | – | – | – | – | – | Pharmacokinetics [2]: unfavorable pharmacokinetics
4 | CN1[C@@H]2CC[C@H]1C[C@@H](OC(=O)C(CO)c1ccccc1)C2 (some centres unmarked) [atropine, reference compound] | – | – | – | – | – | – | – | Blockade of all agonist responses [3]: fully blocked
5 | C[N+](C)(C)CCOC(N)=O [carbachol] | – | – | – | – | – | – | – | CNS penetration [2]: poor CNS penetration
